Test results taken from PubChem BioAssay AID234 (DTP/NCI, 2004).
Where “and” joins values, the source holds several entries; their conditions need not be identical. Identical values can stand only once. Results filed as inconclusive are left out.

System: C3AKF1 mice, hamster liver cystadenocarcinoma s.c., tumor weight T/C
Assay: NCI In Vivo Anticancer Drug Screen. Data for tumor model Cystadenocarcinoma, Liver (No. 1) (Hamster) (subcutaneous) in C3AKF1 (CHKRF1) mice
Conditions: endpoint: mean tumor weight, schedule: Q01DX010 (ip), higher = larger tumour
Experimental: The antitumor activity of compounds was measured in mice bearing transplantable tumors. Survival or tumor size were measured and the results are expressed as the measurement made in the treated group (T) divided by the measurement made in the vehicle treated control group (C). The tumor model used in this assay is Cystadenocarcinoma, Liver (No. 1) (Hamster) (subcutaneous) in C3AKF1 (CHKRF1) mice

[1] = dose: 250.0 mg/kg/injection, vehicle: carboxymethylcellulose (CMC)
[2] = dose: 25.0 mg/kg/injection, vehicle: carboxymethylcellulose (CMC)
[3] = dose: 50.0 mg/kg/injection, vehicle: carboxymethylcellulose (CMC)
[4] = dose: 19.0 mg/kg/injection, vehicle: carboxymethylcellulose (CMC)
[5] = dose: 37.5 mg/kg/injection, vehicle: carboxymethylcellulose (CMC)
[6] = dose: 20.0 mg/kg/injection, vehicle: saline
[7] = dose: 100.0 mg/kg/injection, vehicle: carboxymethylcellulose (CMC)
[8] = dose: 125.0 mg/kg/injection, vehicle: carboxymethylcellulose (CMC)
[9] = dose: 500.0 mg/kg/injection, vehicle: carboxymethylcellulose (CMC)
[10] = dose: 30.0 mg/kg/injection, vehicle: carboxymethylcellulose (CMC)
[11] = dose: 400.0 mg/kg/injection, vehicle: carboxymethylcellulose (CMC)
[12] = dose: 0.5 mg/kg/injection, vehicle: carboxymethylcellulose (CMC)
[13] = dose: 1.0 mg/kg/injection, vehicle: carboxymethylcellulose (CMC)
[14] = dose: 2.0 mg/kg/injection, vehicle: carboxymethylcellulose (CMC)
[15] = dose: 4.0 mg/kg/injection, vehicle: carboxymethylcellulose (CMC)
[16] = dose: 75.0 mg/kg/injection, vehicle: carboxymethylcellulose (CMC)
[17] = dose: 62.0 mg/kg/injection, vehicle: carboxymethylcellulose (CMC)
[18] = dose: 3.0 mg/kg/injection, vehicle: carboxymethylcellulose (CMC)
[19] = dose: 12.0 mg/kg/injection, vehicle: carboxymethylcellulose (CMC)
[20] = dose: 6.0 mg/kg/injection, vehicle: carboxymethylcellulose (CMC)
[21] = dose: 200.0 mg/kg/injection, vehicle: carboxymethylcellulose (CMC)

## CCOC(=O)Sc1ncnc2nc[nH]c12
dose: 14.0 mg/kg/injection, vehicle: carboxymethylcellulose (CMC)
  T/C: 87 % of control
dose: 28.0 mg/kg/injection, vehicle: carboxymethylcellulose (CMC)
  T/C: 84 % of control
dose: 56.0 mg/kg/injection, vehicle: carboxymethylcellulose (CMC)
  T/C: 86 % of control

## O=[N+]([O-])c1ccccc1CSc1ncnc2nc[nH]c12
dose: 15.0 mg/kg/injection, vehicle: carboxymethylcellulose (CMC)
  T/C: 101 % of control
dose: 31.0 mg/kg/injection, vehicle: carboxymethylcellulose (CMC)
  T/C: 99 % of control
[1]
  T/C: 61 % of control

## Cc1ccc(N=NN(C)C)cc1
[2]
  T/C: 96 % of control
[3]
  T/C: 93 % of control

## CCCCCCCCCCCCCCCCC(C(=O)O)C(O)(CC(=O)O)C(=O)O (stereo not given)
[4]
  T/C: 78 % of control
[5]
  T/C: 87 % of control

## COc1ccc2c(c1OC)C(=O)O[C@@H]2[C@H]1c2c(cc3c(c2OC)OCO3)CCN1C
dose: 50.0 mg/kg/injection, vehicle: saline
  T/C: 102 % of control
dose: 100.0 mg/kg/injection, vehicle: saline
  T/C: 88 % of control
dose: 200.0 mg/kg/injection, vehicle: saline
  T/C: 92 % of control

## O=C(Nc1ccc(C2=NCCN2)cc1)c1ccc(C(=O)Nc2ccc(C3=NCCN3)cc2)c(Cl)c1
dose: 5.0 mg/kg/injection, vehicle: saline
  T/C: 83 % of control
dose: 10.0 mg/kg/injection, vehicle: saline
  T/C: 114 % of control
[6]
  T/C: 80 % of control

## O=[n+]1c2c(n([O-])c3ccccc31)-c1cccc3cccc-2c13
[2]
  T/C: 64 % of control
[3]
  T/C: 74 % of control
[7]
  T/C: 48 % of control

## Clc1ccc2c(Cl)ncnc2c1
dose: 4.8 mg/kg/injection, vehicle: carboxymethylcellulose (CMC)
  T/C: 116 % of control
dose: 9.5 mg/kg/injection, vehicle: carboxymethylcellulose (CMC)
  T/C: 110 % of control
[4]
  T/C: 96 % of control
[5]
  T/C: 104 % of control

## CC1(C)CC(C)(c2ccccc2)c2ccccc21 (stereo not given)
dose: 62.5 mg/kg/injection, vehicle: carboxymethylcellulose (CMC)
  T/C: 97 % of control
[8]
  T/C: 87 % of control
[1]
  T/C: 90 % of control
[9]
  T/C: 65 % of control

## NC(N)=N/N=C/C=N/N=C(N)N
[10]
  T/C: 98 % of control

## CCC(=O)NC1=C(N2CC2)C(=O)C(NC(=O)CC)=C(N2CC2)C1=O
dose: 0.6 mg/kg/injection, vehicle: saline
  T/C: 97 % of control
dose: 1.2 mg/kg/injection, vehicle: saline
  T/C: 76 % of control

## CCCCCCCCCCCC[n+]1ccc(C)cc1C
dose: 0.06 mg/kg/injection, vehicle: saline
  T/C: 71 % of control
dose: 0.12 mg/kg/injection, vehicle: saline
  T/C: 75 % of control
dose: 0.25 mg/kg/injection, vehicle: saline
  T/C: 85 % of control

## O=C1NC2C(NC(=O)N2Cl)N1Cl (stereo not given)
[6]
  T/C: 101 % of control

## CCCn1cnc2c(SCc3ccccc3Cl)nc(N)nc21
[2]
  T/C: 88 % of control
[7]
  T/C: 90 % of control and 105 % of control
[11]
  T/C: 96 % of control

## COc1ccc(Nc2ccnc3cc(Cl)ccc23)cc1CN(CCCl)CCCl
[12]
  T/C: 95 % of control
[13]
  T/C: 91 % of control
[14]
  T/C: 93 % of control
[15]
  T/C: 70 % of control

## NNc1nncc2ccccc12
[5]
  T/C: 111 % of control
[16]
  T/C: 94 % of control

## CCC1=C(c2cc(Cl)c3ccccc3c2OCC(=O)O)OC(CC)(C(=O)c2cc(Cl)c3ccccc3c2OCC(=O)O)CC1 (stereo not given)
[10]
  T/C: 90 % of control
dose: 60.0 mg/kg/injection, vehicle: carboxymethylcellulose (CMC)
  T/C: 87 % of control
dose: 120.0 mg/kg/injection, vehicle: carboxymethylcellulose (CMC)
  T/C: 64 % of control

## Nc1nc(SCc2ccccc2)c2ncn(C3CCCC3)c2n1
[17]
  T/C: 120 % of control
[8]
  T/C: 98 % of control
[1]
  T/C: 91 % of control
[9]
  T/C: 81 % of control

## O=C(O)Cc1ccc(C2CCCCC2)cc1
[5]
  T/C: 118 % of control
[16]
  T/C: 115 % of control
dose: 150.0 mg/kg/injection, vehicle: carboxymethylcellulose (CMC)
  T/C: 114 % of control and 121 % of control
dose: 300.0 mg/kg/injection, vehicle: carboxymethylcellulose (CMC)
  T/C: 94 % of control

## NC(=O)c1ccc(NC(=O)CCC(=O)Nc2ccc(C(N)=O)cn2)nc1
dose: 1.25 mg/kg/injection, vehicle: carboxymethylcellulose (CMC)
  T/C: 92 % of control
dose: 2.5 mg/kg/injection, vehicle: carboxymethylcellulose (CMC)
  T/C: 72 % of control

## Cc1c2ccc3ccccc3c2c[n+]2ccccc12
[18]
  T/C: 153 % of control
[19]
  T/C: 89 % of control

## C=CCn1c(=O)n(CC=C)c(=O)n(CC=C)c1=O
dose: 22.5 mg/kg/injection, vehicle: saline
  T/C: 76 % of control
dose: 45.0 mg/kg/injection, vehicle: saline
  T/C: 63 % of control
dose: 90.0 mg/kg/injection, vehicle: saline
  T/C: 63 % of control

## O=C1C=CC(=Nc2ccc(O)c3ncccc23)c2cccnc21
[20]
  T/C: 95 % of control

## Nc1nc(N)c(N=Nc2ccccc2)c(=O)[nH]1
[3]
  T/C: 100 % of control
[7]
  T/C: 110 % of control
[21]
  T/C: 93 % of control
[11]
  T/C: 100 % of control

## Fc1ccc(CSc2ncnc3c2ncn3C2CCCCO2)cc1 (stereo not given)
dose: 45.0 mg/kg/injection, vehicle: carboxymethylcellulose (CMC)
  T/C: 102 % of control
dose: 90.0 mg/kg/injection, vehicle: carboxymethylcellulose (CMC)
  T/C: 111 % of control
dose: 360.0 mg/kg/injection, vehicle: carboxymethylcellulose (CMC)
  T/C: 57 % of control and 78 % of control
dose: 720.0 mg/kg/injection, vehicle: carboxymethylcellulose (CMC)
  T/C: 75 % of control

## O=C(O)C1(NO)CCCC1
dose: 12.5 mg/kg/injection, vehicle: carboxymethylcellulose (CMC)
  T/C: 76 % of control
[2]
  T/C: 108 % of control
[3]
  T/C: 104 % of control
[7]
  T/C: 80 % of control

## N[C@@H](Cc1ccc(N(CCCl)CCCl)cc1)C(=O)O
[12]
  T/C: 57 % of control
[13]
  T/C: 63 % of control
[14]
  T/C: 92 % of control
[15]
  T/C: 75 % of control

## S=c1c2[nH]cnc2ncn1CCSC1=NC=NC2=NC=NC21 (stereo not given)
[7]
  T/C: 95 % of control
[21]
  T/C: 100 % of control
[11]
  T/C: 97 % of control
dose: 600.0 mg/kg/injection, vehicle: carboxymethylcellulose (CMC)
  T/C: 93 % of control

## S=c1nc[nH]c2c1ncn2C1CCCO1 (stereo not given)
[19]
  T/C: 95 % of control
[2]
  T/C: 74 % of control
[3]
  T/C: 63 % of control

## CC(CCc1cccc2ccccc12)(C(=O)O)C(=O)O
[7]
  T/C: 96 % of control

## O=C(Nc1ccc(C2=NCCN2)cc1)c1ccc(C(=O)Nc2ccc(C3=NCCN3)cc2)c(NC(=O)c2ccc(C(=O)Nc3cc(C(=O)Nc4ccc(C5=NCCN5)cc4)ccc3C(=O)Nc3ccc(C4=NCCN4)cc3)cc2)c1
[17]
  T/C: 102 % of control
[1]
  T/C: 205 % of control

## CCOc1ccc(Nc2ncnc3nc[nH]c23)cc1CN(CCCl)CCCl
dose: 1.0 mg/kg/injection, vehicle: saline
  T/C: 78 % of control
dose: 2.0 mg/kg/injection, vehicle: saline
  T/C: 99 % of control
dose: 4.0 mg/kg/injection, vehicle: saline
  T/C: 98 % of control

## O=C(c1ccc(C(=O)N2CC2)cc1)N1CC1
[18]
  T/C: 69 % of control
[20]
  T/C: 85 % of control
[19]
  T/C: 166 % of control
dose: 24.0 mg/kg/injection, vehicle: carboxymethylcellulose (CMC)
  T/C: 98 % of control
